Test results from publication PMC12751141, “Disrupting α-Synuclein–ClpP interaction restores mitochondrial function and attenuates neuropathology in Parkinson’s disease models” (Molecular Neurodegeneration, 2025).

Experiments:
αSyn–ClpP binding = test: Immunoprecipitation of recombinant ClpP and αSyn in vitro; design: species or system human; conditions: recombinant ClpP pre-incubated with peptide 30 min before αSyn; anti-ClpP IP; 3 independent experiments
Protocol: The human recombinant WT- (#S-1001-2), A53T- (#S-1001-2), ΔNAC- (#S-1015-1) and ΔC- (#S-1012-1) αSyn and FITC-αSyn (S-1113-2) were purchased from rPeptide. The human recombinant αSyn pre-formed fibrils (PFF) (Type 1) (SPR-322) and ATTO-594-PFF (SPR-322B-A594) were purchased from StressMarq Biosciences (Bioactivity has been widely validated via various approaches, e.g. TEM, ThT).
Cells or tissues were lysed in total lysis buffer (50mM Tris-HCl, pH 7.5, 150mM NaCl, 1% Triton X-100, and protease inhibitor). Total protein lysates (800 µg) were incubated with the indicated antibodies overnight at 4 °C followed by the addition of protein A/G beads (sc-2003, Santa Cruz) for 2 h at 4 °C. Various recombinant αSyn and Clpp (500 ng) were incubated in in vitro interaction buffer (20mM Tris-HCl pH 7.5, 100mM KCl, 2mM MgCl2 and 0.1% Triton-X100) for 30 min at room temperature, and then incubated with indicated antibodies overnight at 4 °C followed by the addition of protein A/G beads for 2 h at 4 °C. The beads with immuno-precipitates were pulled down at 4000 g and washed four times with total lysis buffer/in vitro interaction buffer in the presence of 0.1% Triton X-100 and were analyzed by western blot analysis.

ClpP–αSyn interaction [1] = test: ClpP–αSyn proximity ligation assay in iPSC-derived neurons; type: cell-based, human; conditions: A53T-αSyn neurons; 1 µM, five days; n = 20 images per group
From the text: (§1) PD iPS cells lines (αSyn A53T, NN0004337, donor) and its isogenic corrected control line (NN0004344) were obtained from RUCDR Infinite Biologics. The iPS cells were differentiated into dopaminergic neuron-enriched neuronal culture with the protocol described previously. Briefly, iPS cell colonies were disassociated with accutase (Invitrogen), plated onto 6-well plates pre-coated with 2.5% Matrigel (BD Biosciences) and allowed to reach 80% confluence in mTeSR medium (Stem Cell Technology). For the first 10 days, cells were treated with SB431542 (10 µM; Tocris Bioscience) and Noggin (100 ng/ml) in Neural Media (NM) with FGF2 ([…]) and EGF ([…]). NM media contained: Neurobasal and DMEM/F12 (1:1), B-27 Supplement Minus Vitamin A (50×, Invitrogen), N2 Supplement (100X, Invitrogen), GlutaMAX (Invitrogen, 100×), 100 units/ml penicillin and 100 µg/ml streptomycin (Fisher); for the next 4 days, cells were treated with human recombinant Sonic hedgehog (SHH, 200 ng/ml) in neuronal differentiation medium. Neuronal differentiation medium contained Neurobasal and DMEM/F12 (1:3), B27, N2, GlutaMax and PS. […]
Proximity ligation assay (PLA) was performed using the Duolink® In Situ Starter Kit with Detection Reagents Green (mouse/rabbit; DUO92101, DUO92014). […] PLA puncta were detected as distinct fluorescent spots and imaged by confocal microscopy (Fluoview FV3000; Olympus). […]

ClpP–αSyn interaction [2] = test: ClpP–αSyn co-immunoprecipitation in iPSC-derived neurons; type: cell-based, human; conditions: A53T-αSyn neurons; 1 µM, five days; n = 4
From the text: as §1, with “medium.” for “medium. Neuronal differentiation medium contained Neurobasal and DMEM/F12 (1:3), B27, N2, GlutaMax and PS.”
Cells or tissues were lysed in total lysis buffer (50mM Tris-HCl, pH 7.5, 150mM NaCl, 1% Triton X-100, and protease inhibitor). […] The beads with immuno-precipitates were pulled down at 4000 g and washed four times with total lysis buffer/in vitro interaction buffer in the presence of 0.1% Triton X-100 and were analyzed by western blot analysis. […]

`CC(C)[C@H](NC(=O)CNC(=O)CNC(=O)CCCCCNC(=O)[C@H](CCCNC(=N)N)NC(=O)[C@H](CCCNC(=N)N)NC(=O)[C@H](CCCNC(=N)N)NC(=O)[C@H](CCC(N)=O)NC(=O)[C@H](CCCNC(=N)N)NC(=O)[C@H](CCCNC(=N)N)NC(=O)[C@H](CCCCN)NC(=O)[C@H](CCCCN)NC(=O)[C@H](CCCNC(=N)N)NC(=O)CNC(=O)[C@@H](N)Cc1ccc(O)cc1)C(=O)N[C@H](C(=O)N[C@H](C(=O)N[C@@H](C)C(=O)O)[C@@H](C)O)C(C)C` [CS2, TAT-C6-GGVVTA] was tested, and the “αSyn–ClpP binding, recombinant” value (αSyn–ClpP binding) was “significantly reduced αSyn–ClpP binding”, the “ClpP–αSyn interaction by PLA” value (ClpP–αSyn interaction [1]) was “markedly reduced the ClpP–αSyn interaction” and the “ClpP–αSyn interaction by co-IP” value (ClpP–αSyn interaction [2]) was “markedly reduced the ClpP–αSyn interaction”.
